Laboratory results taken from article PMC10004634 (PLOS ONE, 2023).
Like-named read-outs stand apart in the source and are kept apart here.

Legend:
Test in all cases: biochemical
Design in all cases: KINOMEscan scanMAX competition binding, DNA-tagged kinases, qPCR read-out, percent control at 300 nM
[1] = target: FGR (Homo sapiens, UniProt P09769)
[2] = target: BRAF (Homo sapiens, UniProt P15056)
[3] = target: MET(M1250T) (Homo sapiens, UniProt P08581, M1250T)
[4] = target: NEK7 (Homo sapiens, UniProt Q8TDX7)
[5] = target: RET(V804M) (Homo sapiens, UniProt P07949, V804M)
[6] = target: SYK (Homo sapiens, UniProt P43405)
[7] = target: T1, EPHA3 (Homo sapiens, UniProt P29320)
T1 sequence (P29320 1-983): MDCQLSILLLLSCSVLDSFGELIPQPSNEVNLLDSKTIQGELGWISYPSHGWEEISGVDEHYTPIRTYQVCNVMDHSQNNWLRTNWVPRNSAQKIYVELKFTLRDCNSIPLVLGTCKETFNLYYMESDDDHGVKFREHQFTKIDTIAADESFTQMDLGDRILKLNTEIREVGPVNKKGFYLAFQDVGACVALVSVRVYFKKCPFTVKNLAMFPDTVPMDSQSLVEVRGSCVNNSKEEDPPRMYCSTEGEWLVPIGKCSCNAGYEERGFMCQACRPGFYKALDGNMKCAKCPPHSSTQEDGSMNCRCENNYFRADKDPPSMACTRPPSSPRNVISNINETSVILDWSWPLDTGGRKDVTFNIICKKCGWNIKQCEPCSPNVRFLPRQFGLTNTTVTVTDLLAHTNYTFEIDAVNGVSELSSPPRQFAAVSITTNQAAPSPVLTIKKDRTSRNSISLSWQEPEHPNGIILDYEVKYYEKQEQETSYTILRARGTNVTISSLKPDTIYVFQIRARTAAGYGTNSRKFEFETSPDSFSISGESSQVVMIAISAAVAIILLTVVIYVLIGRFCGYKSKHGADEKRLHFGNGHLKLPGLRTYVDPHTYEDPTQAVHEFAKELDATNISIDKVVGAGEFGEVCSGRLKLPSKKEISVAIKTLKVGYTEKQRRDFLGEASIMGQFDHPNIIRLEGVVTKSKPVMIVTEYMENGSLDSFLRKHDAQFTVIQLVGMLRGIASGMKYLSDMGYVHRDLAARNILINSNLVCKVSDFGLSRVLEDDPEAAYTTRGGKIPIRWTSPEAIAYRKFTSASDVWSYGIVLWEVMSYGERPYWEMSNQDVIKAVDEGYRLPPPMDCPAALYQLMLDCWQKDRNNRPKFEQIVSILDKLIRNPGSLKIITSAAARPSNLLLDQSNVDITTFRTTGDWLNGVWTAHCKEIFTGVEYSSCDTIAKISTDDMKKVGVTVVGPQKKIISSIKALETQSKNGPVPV

[8] = target: T2, DDR2 (Homo sapiens, UniProt Q16832)
T2 sequence (Q16832 1-855): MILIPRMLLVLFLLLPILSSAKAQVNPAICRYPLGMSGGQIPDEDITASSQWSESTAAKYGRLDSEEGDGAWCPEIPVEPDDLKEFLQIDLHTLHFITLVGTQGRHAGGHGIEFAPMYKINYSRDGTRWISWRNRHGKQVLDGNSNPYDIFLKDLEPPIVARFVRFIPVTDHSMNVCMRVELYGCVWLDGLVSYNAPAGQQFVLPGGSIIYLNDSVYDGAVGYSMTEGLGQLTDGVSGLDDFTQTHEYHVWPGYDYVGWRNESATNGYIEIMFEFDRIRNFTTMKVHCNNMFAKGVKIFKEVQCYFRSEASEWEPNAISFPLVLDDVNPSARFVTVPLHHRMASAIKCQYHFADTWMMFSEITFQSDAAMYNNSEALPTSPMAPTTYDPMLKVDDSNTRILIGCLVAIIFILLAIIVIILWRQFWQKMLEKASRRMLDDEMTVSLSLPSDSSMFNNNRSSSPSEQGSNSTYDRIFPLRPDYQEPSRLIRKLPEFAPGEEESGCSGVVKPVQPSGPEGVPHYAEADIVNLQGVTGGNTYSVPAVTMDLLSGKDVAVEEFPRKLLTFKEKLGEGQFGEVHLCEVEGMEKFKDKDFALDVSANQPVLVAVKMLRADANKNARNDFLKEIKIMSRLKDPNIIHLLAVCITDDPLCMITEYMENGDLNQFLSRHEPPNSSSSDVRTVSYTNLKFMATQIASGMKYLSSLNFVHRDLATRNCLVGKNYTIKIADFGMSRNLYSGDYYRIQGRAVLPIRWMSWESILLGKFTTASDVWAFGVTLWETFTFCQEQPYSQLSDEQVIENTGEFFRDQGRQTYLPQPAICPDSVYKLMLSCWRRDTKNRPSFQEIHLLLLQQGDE

[9] = read-out: Percent control / Acalabrutinib
[10] = read-out: Percent control / Ibrutinib
[11] = read-out: Percent control / Tirabrutinib
[12] = read-out: Percent control / Zanubrutinib

Sequence of BRAF (P15056 whole entry): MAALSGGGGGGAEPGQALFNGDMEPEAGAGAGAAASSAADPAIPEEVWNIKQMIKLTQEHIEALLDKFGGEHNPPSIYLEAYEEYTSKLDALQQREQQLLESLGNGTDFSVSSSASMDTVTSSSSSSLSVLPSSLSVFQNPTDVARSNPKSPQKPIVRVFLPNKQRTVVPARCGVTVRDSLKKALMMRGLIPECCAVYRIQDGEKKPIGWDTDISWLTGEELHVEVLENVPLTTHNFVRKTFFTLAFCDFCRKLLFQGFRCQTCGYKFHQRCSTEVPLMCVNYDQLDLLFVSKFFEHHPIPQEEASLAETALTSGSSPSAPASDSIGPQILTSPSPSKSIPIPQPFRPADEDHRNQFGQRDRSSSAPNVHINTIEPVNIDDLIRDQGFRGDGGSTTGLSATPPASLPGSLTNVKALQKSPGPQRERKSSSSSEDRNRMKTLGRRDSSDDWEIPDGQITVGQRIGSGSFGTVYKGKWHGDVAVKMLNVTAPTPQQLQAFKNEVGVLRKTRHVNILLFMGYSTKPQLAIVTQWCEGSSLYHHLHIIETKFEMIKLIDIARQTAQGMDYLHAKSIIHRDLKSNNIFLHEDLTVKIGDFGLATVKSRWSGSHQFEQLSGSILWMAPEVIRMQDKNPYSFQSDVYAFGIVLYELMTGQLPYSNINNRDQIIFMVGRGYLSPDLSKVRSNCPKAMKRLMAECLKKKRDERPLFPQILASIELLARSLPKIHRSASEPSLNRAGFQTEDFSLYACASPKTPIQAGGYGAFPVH
Sequence of FGR (P09769 whole entry): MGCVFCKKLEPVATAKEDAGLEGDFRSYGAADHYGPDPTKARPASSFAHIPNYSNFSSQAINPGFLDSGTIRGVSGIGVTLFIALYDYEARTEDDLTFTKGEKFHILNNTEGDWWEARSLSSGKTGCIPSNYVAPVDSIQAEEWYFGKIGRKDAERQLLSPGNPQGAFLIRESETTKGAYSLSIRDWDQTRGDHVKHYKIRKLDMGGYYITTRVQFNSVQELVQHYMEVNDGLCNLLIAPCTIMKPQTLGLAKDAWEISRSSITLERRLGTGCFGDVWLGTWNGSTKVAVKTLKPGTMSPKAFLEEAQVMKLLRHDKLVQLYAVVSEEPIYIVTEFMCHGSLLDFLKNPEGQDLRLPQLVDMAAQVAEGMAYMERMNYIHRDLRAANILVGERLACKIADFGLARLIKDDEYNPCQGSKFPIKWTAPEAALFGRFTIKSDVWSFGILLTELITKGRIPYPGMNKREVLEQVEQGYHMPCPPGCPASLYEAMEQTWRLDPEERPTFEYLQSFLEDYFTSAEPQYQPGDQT
Sequence of RET(V804M) (P07949 whole entry V804M): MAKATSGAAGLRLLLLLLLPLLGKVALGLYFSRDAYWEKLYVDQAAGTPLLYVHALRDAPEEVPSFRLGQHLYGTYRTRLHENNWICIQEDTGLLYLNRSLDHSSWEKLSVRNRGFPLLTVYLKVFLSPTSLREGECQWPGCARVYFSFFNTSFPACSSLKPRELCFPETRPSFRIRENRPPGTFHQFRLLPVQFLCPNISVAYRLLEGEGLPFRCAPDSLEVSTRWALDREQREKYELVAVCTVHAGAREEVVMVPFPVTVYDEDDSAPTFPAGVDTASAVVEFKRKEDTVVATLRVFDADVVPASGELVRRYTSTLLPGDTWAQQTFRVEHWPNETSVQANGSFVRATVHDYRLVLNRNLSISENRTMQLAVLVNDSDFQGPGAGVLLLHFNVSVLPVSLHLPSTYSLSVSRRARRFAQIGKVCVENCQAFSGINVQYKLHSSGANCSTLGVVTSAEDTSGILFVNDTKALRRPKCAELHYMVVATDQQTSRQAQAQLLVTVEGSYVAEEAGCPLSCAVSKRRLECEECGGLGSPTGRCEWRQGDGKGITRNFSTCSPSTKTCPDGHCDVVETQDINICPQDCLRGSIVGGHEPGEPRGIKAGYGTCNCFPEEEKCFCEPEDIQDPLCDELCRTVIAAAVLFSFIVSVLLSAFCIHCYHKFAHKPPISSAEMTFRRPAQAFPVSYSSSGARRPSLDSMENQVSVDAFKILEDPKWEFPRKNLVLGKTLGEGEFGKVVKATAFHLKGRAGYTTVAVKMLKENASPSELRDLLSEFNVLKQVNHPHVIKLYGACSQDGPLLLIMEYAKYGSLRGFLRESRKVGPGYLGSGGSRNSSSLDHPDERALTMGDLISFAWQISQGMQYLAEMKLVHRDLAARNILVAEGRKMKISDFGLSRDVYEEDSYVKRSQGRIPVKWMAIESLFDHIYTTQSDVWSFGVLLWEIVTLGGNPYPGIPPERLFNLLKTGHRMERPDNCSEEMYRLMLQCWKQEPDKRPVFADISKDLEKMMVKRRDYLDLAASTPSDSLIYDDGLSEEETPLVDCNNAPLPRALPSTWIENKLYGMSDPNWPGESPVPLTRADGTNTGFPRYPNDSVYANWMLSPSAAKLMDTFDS
Sequence of MET(M1250T) (P08581 whole entry M1250T): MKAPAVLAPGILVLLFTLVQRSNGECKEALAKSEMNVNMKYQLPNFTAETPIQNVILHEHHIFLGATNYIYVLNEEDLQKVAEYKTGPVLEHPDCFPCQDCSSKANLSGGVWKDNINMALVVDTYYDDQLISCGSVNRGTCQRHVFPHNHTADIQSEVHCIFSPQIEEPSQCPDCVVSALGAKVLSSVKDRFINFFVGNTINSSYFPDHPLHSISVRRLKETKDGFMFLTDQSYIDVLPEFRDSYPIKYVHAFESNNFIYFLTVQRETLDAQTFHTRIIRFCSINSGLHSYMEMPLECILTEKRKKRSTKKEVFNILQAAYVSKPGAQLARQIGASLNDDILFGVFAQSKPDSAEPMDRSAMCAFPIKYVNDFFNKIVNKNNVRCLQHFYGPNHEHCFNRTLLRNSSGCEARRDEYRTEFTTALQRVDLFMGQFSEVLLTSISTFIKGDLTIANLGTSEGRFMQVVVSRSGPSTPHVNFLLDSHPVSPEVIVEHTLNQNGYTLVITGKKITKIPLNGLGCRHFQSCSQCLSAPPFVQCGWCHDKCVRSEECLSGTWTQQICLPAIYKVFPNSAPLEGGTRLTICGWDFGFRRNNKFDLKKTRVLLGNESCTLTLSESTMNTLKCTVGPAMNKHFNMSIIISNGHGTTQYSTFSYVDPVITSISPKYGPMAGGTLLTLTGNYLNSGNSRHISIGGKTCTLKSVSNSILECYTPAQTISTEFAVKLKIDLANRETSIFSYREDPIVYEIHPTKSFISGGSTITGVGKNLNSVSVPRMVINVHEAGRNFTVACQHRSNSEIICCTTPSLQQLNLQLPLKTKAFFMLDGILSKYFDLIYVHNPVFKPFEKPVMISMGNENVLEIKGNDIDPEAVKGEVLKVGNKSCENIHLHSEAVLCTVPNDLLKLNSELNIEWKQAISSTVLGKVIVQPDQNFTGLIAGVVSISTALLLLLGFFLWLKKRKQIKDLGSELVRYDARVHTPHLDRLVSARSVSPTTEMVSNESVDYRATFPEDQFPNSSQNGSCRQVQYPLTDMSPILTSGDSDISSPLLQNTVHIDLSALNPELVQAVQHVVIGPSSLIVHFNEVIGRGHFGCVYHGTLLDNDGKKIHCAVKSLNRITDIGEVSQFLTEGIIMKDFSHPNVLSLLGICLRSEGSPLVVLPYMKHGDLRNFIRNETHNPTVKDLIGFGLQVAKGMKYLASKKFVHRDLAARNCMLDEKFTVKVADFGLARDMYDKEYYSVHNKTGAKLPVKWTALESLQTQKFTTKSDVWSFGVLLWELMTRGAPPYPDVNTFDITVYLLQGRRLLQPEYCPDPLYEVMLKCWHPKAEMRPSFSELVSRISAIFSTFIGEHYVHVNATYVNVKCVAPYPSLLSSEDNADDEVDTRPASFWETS
Sequence of NEK7 (Q8TDX7 whole entry): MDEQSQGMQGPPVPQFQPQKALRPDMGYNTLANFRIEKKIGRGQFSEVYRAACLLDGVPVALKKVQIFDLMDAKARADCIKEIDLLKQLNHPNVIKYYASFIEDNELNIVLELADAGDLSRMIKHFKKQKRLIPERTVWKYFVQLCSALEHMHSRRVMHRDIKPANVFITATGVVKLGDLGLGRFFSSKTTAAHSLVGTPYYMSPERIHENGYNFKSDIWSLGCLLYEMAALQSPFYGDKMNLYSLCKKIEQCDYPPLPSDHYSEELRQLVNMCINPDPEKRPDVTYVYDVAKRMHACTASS

With CC#CC(=O)N1CCC[C@H]1c1nc(-c2ccc(C(=O)Nc3ccccn3)cc2)c2c(N)nccn12 [Acalabrutinib] the remaining binding at 0.3 µM [1, 9] was 94%, the remaining binding at 0.3 µM [2, 9] was 85% and the remaining binding at 0.3 µM [3, 9] was 93%. It also gave a remaining binding at 0.3 µM [4, 9] of 76%, a remaining binding at 0.3 µM [5, 9] of 85% and a remaining binding at 0.3 µM [6, 9] of 89%. For the same compound, the remaining binding at 0.3 µM [7, 9] was 74% and the remaining binding at 0.3 µM [8, 9] was 95%.
C=CC(=O)N1CCC[C@@H](n2nc(-c3ccc(Oc4ccccc4)cc3)c3c(N)ncnc32)C1 [Ibrutinib] showed a remaining binding at 0.3 µM [1, 10] of 8.6%, a remaining binding at 0.3 µM [2, 10] of 97% and a remaining binding at 0.3 µM [4, 10] of 97%. The remaining binding at 0.3 µM [5, 10] was 94%, the remaining binding at 0.3 µM [7, 10] was 82% and the remaining binding at 0.3 µM [8, 10] was 80%.
CC#CC(=O)N1CC[C@@H](n2c(=O)n(-c3ccc(Oc4ccccc4)cc3)c3c(N)ncnc32)C1 [Tirabrutinib] was tested, and the remaining binding at 0.3 µM [3, 11] was 93%, the remaining binding at 0.3 µM [6, 11] was 93% and the remaining binding at 0.3 µM [7, 11] was 92%. For the same compound, the remaining binding at 0.3 µM [8, 11] was 88%.
C=CC(=O)N1CCC([C@@H]2CCNc3c(C(N)=O)c(-c4ccc(Oc5ccccc5)cc4)nn32)CC1 [Zanubrutinib] was tested, and the remaining binding at 0.3 µM [1, 12] was 66%, the remaining binding at 0.3 µM [2, 12] was 97% and the remaining binding at 0.3 µM [3, 12] was 100%. It also gave a remaining binding at 0.3 µM [4, 12] of 91%, a remaining binding at 0.3 µM [5, 12] of 94% and a remaining binding at 0.3 µM [6, 12] of 81%. It also gave a remaining binding at 0.3 µM [7, 12] of 75%.
